How the values were obtained:
pSTAT6 in Ramos cells = experiment: Reduction of pSTAT6 in Ramos cells (Western blot); assay type: cell-based; settings: Homo sapiens; Ramos cells (type I receptor complex); read-out: EC50 of pSTAT6 inhibition
Protocol: Ramos cells were used as cell-based model of IL-4 inhibition. Ramos cells express type I receptor complex (IL-4Rα and γc)—they were used to confirm that the lead compound D9 (compound 1 in Table 3) inhibits IL-4 signaling in this context as well.
The assay was run as described in Example 2 and 3 for THP-1 cells. Blotting was conducted for pSTAT6 and STAT6 and the percent of pSTAT6 calculated based on total STAT6. All conditions were run in triplicate. The results are depicted in FIGS. 22-23.

IL-4 = target: T1, IL-4 (Homo sapiens, UniProt P05112); experiment: HEK-Blue IL-4/IL-13 cell-based reporter (SEAP) IL-4 inhibition assay; settings: Example 2, quadruplicate; read-out: EC50 of IL-4 inhibition in HEK-Blue IL-4/IL-13 cells
T1 construct: purchased Acros Biosystems IL4-H4218; host or cells: HEK-293
T1 sequence (P05112 25-153): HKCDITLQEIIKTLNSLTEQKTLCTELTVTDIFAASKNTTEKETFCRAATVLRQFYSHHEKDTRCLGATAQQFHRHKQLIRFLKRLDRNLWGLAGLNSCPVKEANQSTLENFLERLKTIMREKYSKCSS
Protocol: HEK-Blue IL-4/IL-13 cells were purchased from Invivogen and maintained in DMEM complete with 10% fetal bovine serum, 10 μg/ml of blasticidin and 100 μg/ml of Zeocin, 100 μg/mL Normocin, and 100 U/mL-100 μg/mL Pen-Strep. Cells used for assays were between passages 12 and 18. […] HEK-Blue IL-4/IL-13 cells were trypsinized, spun down, and resuspended in DMEM with 10% heat-inactivated FBS, and 100 U/mL-100 μg/mL Pen-Strep at a concentration of 3.125E5/mL. 160 μL of the cell suspension was added to each well of a 96 well plate, avoiding the edges of the plate and equilibrated in an incubator for 1 hour. After 2 hours, 40 μL of the small molecule/IL-4 solution was added to each well. Each measurement performed in quadruplicate. Cells were incubated for 20 hours at 37° C./5% CO2. Quanti-Blue was prepared according to manufacture and 160 μL added to each well of a 96 well plate, avoiding edges. 40 μL of cell supernatant was added to each well and then incubated for 3 hours at 37° C. The optical density was then read at 650 nm with a Molecular Devices SpectraMax M5 Microplate Reader. Data was plotted and analyzed in GraphPad Prism 8.
HEK-Blue IL-4/IL-13 cells were purchased from Invivogen and maintained in DMEM complete with 10% fetal bovine serum, 10 μg/ml of blasticidin and 100 μg/ml of Zeocin, 100 μg/mL Normocin, and 100 U/mL-100 μg/mL Pen-Strep. Cells used for assays were between passages 12 and 18. Prior to screening small molecules, the SEAP production induced by IL-4 alone was tested in the cells (FIG. 13) and determined to be 0.3 ng/mL. The EC25 for the IL-4 induced SEAP production (0.1 ng/mL final well concentration) was chosen for running small molecule inhibition assays.
For screening small molecules, 25 µL of each molecule (FIG. 9) in DMEM with 4% DMSO was added to 25 μL of 1 ng/ml IL-4 in DMEM and incubated for 2 hours at 37° C. HEK-Blue IL-4/IL-13 cells were trypsinized, spun down, and resuspended in DMEM with 10% heat-inactivated FBS, and 100 U/mL-100 μg/mL Pen-Strep at a concentration of 3.125E5/mL. 160 μL of the cell suspension was added to each well of a 96 well plate, avoiding the edges of the plate and equilibrated in an incubator for 1 hour. After 2 hours, 40 μL of the small molecule/IL-4 solution was added to each well. Each measurement was performed in […]. Cells were incubated for 20 hours at 37° C./5% CO2. Quanti-Blue was prepared according to manufacture and 160 μL added to each well of a 96 well plate, avoiding edges. 40 μL of cell supernatant was added to each well and then incubated for 3 hours at 37° C. The optical density was then read at 650 nm with a Molecular Devices SpectraMax M5 Microplate Reader. Data was plotted and analyzed in GraphPad Prism 8.
HEK-Blue IL-4/IL-13 cells used to screen analogs of compound 52 from ACS Chemical Biology paper (also referred to herein as D9). Assay was run as described in Examples 2 and 3. All compounds were screened at 10 μM, 1 μM, and 250 nM in quadruplicate. The results are depicted in FIGS. 17-21.

[1] = test system: STAT-6 phosphorylation in THP-1 cells; experiment: THP-1 STAT-6/pSTAT-6 Western blot assay; assay type: cell-based; settings: Homo sapiens, THP-1, THP-1 cells, IL-4 preincubated with compound, read-out: EC50 of reduction in pSTAT-6 levels
Protocol: THP-1 cells were maintained in RMPI-1640 with 10% heat-inactivated fetal bovine serum and 50 μM beta-mercaptoethanol. Cells used for assays were between passages 6 and 10. 10 ng/ml IL-4 was preincubated with experimental sample (vehicle, D9 etc) for 2 hours at 37° C. Solutions were then added to 2E6 THP-1 cells in 1 mL. THP-1 cells were incubated for 30 minutes in incubator at 37° C. 5% CO2. Cells were then spun down, lysed with 200 μL ice-cold RIPA buffer complete with phosphatase and protease inhibitors. Cell lysate was incubated on ice for 30 minutes and then stored at −20° C. until western blot analysis. Undiluted cell-lysate was run SDS-PAGE followed by transfer to membrane using Biorad equipment. Membranes were incubated with 1:1000 primary antibody overnight at 4° ° C. Membranes then incubated with 1:50,000 dilution secondary for 1 hour at RT. […] The brightness/contrast was adjusted in […] and the area under the curve of each lane was quantified.
THP-1 cells were maintained in RMPI-1640 with 10% heat-inactivated fetal bovine serum and 50 μM beta-mercaptoethanol. […] The brightness/contrast was adjusted in FIJI (FIGS. 15 and 16) and the area under the curve of each lane was quantified. The ratio of phosphorylated STAT6 to STAT6 was calculated and normalized to the amount of total STAT6. The data was plotted and analyzed using Graphpad Prism 8.

Q: How did the EC50 (pSTAT6 in Ramos cells) turn out when `N#Cc1c(-c2ccc(O)c(O)c2)cc(-c2ccc(F)cc2)nc1N` [Compound D9] was run?
A: 6.12 µM

Q: And the EC50 (IL-4)?
A: 5.73 µM

Q: And the EC50 [1]?
A: 3.1 µM

— patent US12043621B2, “Small molecule inhibitors of Interleukin-4” (Trustees of Boston University, priority 2020, dated 2024)
